Our source for the Ki values is BindingDB's records for doi:10.1016/S0960-894X(97)00406-X (1997).

Counter-ions that a name gives are not always drawn.

This assay is described as follows: Compound was evaluated for the inhibition of Opioid receptor delta 1 binding to guinea pig brain membranes, using 0.2 nM [3H]naltrindole as radioligand.

One may read the Ki as a measure of affinity in units of concentration, obtained from inhibition or displacement. A higher Ki goes with lower affinity. Compound `CC(=O)Nc1cccc([C@@H](CN2CCCC2)N(C)C(=O)Cc2ccc(Cl)c(Cl)c2)c1` [N-[(S)-1-(3-Acetylamino-phenyl)-2-pyrrolidin-1-yl-ethyl]-2-(3,4-dichloro-phenyl)-N-methyl-acetamide; hydrochloride] gave an inhibition constant (Ki) of 14 nM. As for `CN(C(=O)Cc1ccc(Cl)c(Cl)c1)[C@H](CN1CCCC1)c1cccc(NC(=S)Nc2ccc(-c3c4ccc(=O)cc-4oc4cc(O)ccc34)c(C(=O)O)c2)c1` [5-{3-[3-((S)-1-{[2-(3,4-Dichloro-phenyl)-acetyl]-methyl-amino}-2-pyrrolidin-1-yl-ethyl)-phenyl]-thioureido}-2-(6-hydroxy-3-oxo-3H-xanthen-9-yl)-benzoic acid], the figure is 0.898 nM; as for `CN(C(=O)Cc1ccc(Cl)c(Cl)c1)C(CN1CCCC1)c1cccc(NC(=S)Nc2ccc(-c3c4ccc(=O)cc-4oc4cc(O)ccc34)c(C(=O)O)c2)c1` (stereo not given) [5-{3-[3-(1-{[2-(3,4-Dichloro-phenyl)-acetyl]-methyl-amino}-2-pyrrolidin-1-yl-ethyl)-phenyl]-thioureido}-2-(6-hydroxy-3-oxo-3H-xanthen-9-yl)-benzoic acid], 1.8 nM. Compound `CN(C(=O)Cc1ccc(Cl)c(Cl)c1)[C@@H](CN1CCCC1)c1cccc(NC(=S)Nc2ccc(-c3c4ccc(=O)cc-4oc4cc(O)ccc34)c(C(=O)O)c2)c1` [5-{3-[3-((R)-1-{[2-(3,4-Dichloro-phenyl)-acetyl]-methyl-amino}-2-pyrrolidin-1-yl-ethyl)-phenyl]-thioureido}-2-(6-hydroxy-3-oxo-3H-xanthen-9-yl)-benzoic acid] returned a Ki of 86 nM. Compared with the last compound, the Ki is about 48-fold higher.

In the case of `CC(=O)Nc1cccc([C@H](CN2CCCC2)N(C)C(=O)Cc2ccc(Cl)c(Cl)c2)c1` [N-[(R)-1-(3-Acetylamino-phenyl)-2-pyrrolidin-1-yl-ethyl]-2-(3,4-dichloro-phenyl)-N-methyl-acetamide; hydrochloride], the Ki stood at 3070 nM.
